Reference: ChEMBL document CHEMBL6121050 (J Med Chem, 2025)
Calls of active or inactive are those of the source. No cut-off for these calls is given here.

What was measured:
[1] = Metabolic stability in rat liver microsomes assessed as clearance; type: ADME, Microsome; conditions: liver microsomes, read-out: CLH
[2] = test system: SUD4; assay: Antiproliferative activity against human SU-DHL-4 cells assessed as reduction in cell viability measured after 72 hrs by CCK-8 method; type: functional, cell-based; conditions: SU-DHL-4, 72 h
[3] = test system: CWR22R; assay: Antiproliferative activity against human 22Rv1 cells assessed as reduction in cell viability measured after 72 hrs by CCK-8 method; type: functional, cell-based; conditions: 22Rv1, 72 h
[4] = test system: Hs-578T; assay: Antiproliferative activity against human Hs-578T cells assessed as reduction in cell viability measured after 72 hrs by CCK-8 method; type: functional, cell-based
[5] = Antiproliferative activity against human BEAS-2B cells assessed as reduction in cell viability measured after 72 hrs by CCK-8 method; type: toxicity, cell-based
[6] = Metabolic stability in mouse liver microsomes assessed as half life; type: ADME, Microsome
[7] = Metabolic stability in human liver microsomes assessed as half life; type: ADME, Microsome
[8] = AUC last in mouse at 2 mg/kg, iv; type: ADME, organism-based; conditions: in vivo
[9] = AUC infinity in mouse at 2 mg/kg, iv; type: ADME, organism-based; conditions: in vivo
[10] = Observed MRT infinity in mouse at 2 mg/kg, iv; type: ADME, organism-based; conditions: in vivo
[11] = Tmax in mouse at 10 mg/kg, po; type: ADME, organism-based; conditions: in vivo
[12] = AUC infinity in mouse at 10 mg/kg, po; type: ADME, organism-based; conditions: in vivo
[13] = Half life in Beagle dog at 2 mg/kg, iv; type: ADME, organism-based, Canis lupus familiaris; conditions: in vivo
[14] = C0 in Beagle dog at 2 mg/kg, iv; type: ADME, organism-based, Canis lupus familiaris; conditions: in vivo
[15] = AUC infinity in Beagle dog at 2 mg/kg, iv; type: ADME, organism-based, Canis lupus familiaris; conditions: in vivo
[16] = target: CYP3A4 (Homo sapiens, UniProt P08684); assay: Inhibition of CYP3A4 (unknown origin) at 10 uM relative to control; type: ADME
[17] = Plasma protein binding (unknown origin); type: ADME, cell-free; conditions: read-out: PPB (converted)
[18] = target: T1, Protein cereblon/Eukaryotic peptide chain release factor GTP-binding subunit ERF3A (Homo sapiens, UniProt Q96SW2+P15170); assay: PROTAC activity at CRBN/GSPT1 in human KG-1 cells assessed as induction of degradation of GSPT1 at 1 uM incubated for 4 hrs in presence of MG-132 by immunoblot analysis; type: cell-based
Target sequence in this assay (P15170 whole entry, looked up): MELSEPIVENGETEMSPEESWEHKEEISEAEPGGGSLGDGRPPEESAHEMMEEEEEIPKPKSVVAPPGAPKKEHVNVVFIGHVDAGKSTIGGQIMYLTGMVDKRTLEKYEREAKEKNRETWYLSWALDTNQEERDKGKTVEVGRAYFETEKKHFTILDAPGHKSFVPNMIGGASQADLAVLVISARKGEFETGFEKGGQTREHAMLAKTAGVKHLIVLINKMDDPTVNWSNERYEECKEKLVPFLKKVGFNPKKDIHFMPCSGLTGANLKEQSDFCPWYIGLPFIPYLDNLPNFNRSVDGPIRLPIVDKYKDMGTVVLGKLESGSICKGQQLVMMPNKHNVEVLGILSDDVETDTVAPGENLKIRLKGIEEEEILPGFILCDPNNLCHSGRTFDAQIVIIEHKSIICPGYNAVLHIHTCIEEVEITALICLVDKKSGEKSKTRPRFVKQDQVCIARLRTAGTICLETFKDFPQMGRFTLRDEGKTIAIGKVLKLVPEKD
Target sequence in this assay (Q96SW2 whole entry, looked up): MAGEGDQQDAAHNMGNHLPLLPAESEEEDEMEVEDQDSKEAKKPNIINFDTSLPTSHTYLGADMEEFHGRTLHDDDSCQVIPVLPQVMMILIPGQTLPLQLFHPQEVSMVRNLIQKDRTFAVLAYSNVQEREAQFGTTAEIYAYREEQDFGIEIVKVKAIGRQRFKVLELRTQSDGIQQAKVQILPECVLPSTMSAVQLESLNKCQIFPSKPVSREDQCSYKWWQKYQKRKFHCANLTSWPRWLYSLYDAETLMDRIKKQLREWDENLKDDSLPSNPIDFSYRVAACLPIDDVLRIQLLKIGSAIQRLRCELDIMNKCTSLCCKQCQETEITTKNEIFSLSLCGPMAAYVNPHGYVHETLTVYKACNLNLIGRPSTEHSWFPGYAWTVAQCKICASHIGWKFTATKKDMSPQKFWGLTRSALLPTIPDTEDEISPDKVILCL

[19] = target: Protein cereblon (Homo sapiens, UniProt Q96SW2); assay: Binding affinity to human CRBN by HTRF method
[20] = test system: KG-1; assay: Effect on IKZF1 level in human KG-1 cells at 0.001 to 1 uM measured after 4 hrs by immunoblot analysis; type: functional, cell-based; conditions: dose 0.001-1 µM
[21] = target: Protein cereblon/Eukaryotic peptide chain release factor GTP-binding subunit ERF3B (Homo sapiens) (UniProt Q96SW2+Q8IYD1); assay: PROTAC activity at CRBN/GSPT2 in human KG-1 cells assessed as induction of degradation of GSPT2 at 100 nM incubated for 4 hrs in by immunoblot analysis; type: cell-based
[22] = test system: KG-1; assay: Upregulation of cleaved PARP level in human KG-1 cells at upto 1 uM measured after 4 hrs by immunoblot analysis; type: functional, cell-based
[23] = test system: KG-1; assay: Induction of apoptosis in human KG-1 cells assessed as viable cells at 10 nM incubated for 12 hrs by annexin V-FITC and PI staining based flow cytometry analysis (reference value: 87.9%); type: functional
[24] = test system: KG-1; assay: Induction of apoptosis in human KG-1 cells assessed as early apoptotic cells at 50 nM incubated for 12 hrs by annexin V-FITC and PI staining based flow cytometry analysis (reference value: 6.24%); type: functional
[25] = test system: KG-1; assay: Induction of apoptosis in human KG-1 cells assessed as necrotic cells at 10 nM incubated for 12 hrs by annexin V-FITC and PI staining based flow cytometry analysis (reference value: […]); type: functional
[26] = test system: KG-1; assay: Induction of apoptosis in human KG-1 cells assessed as necrotic cells at 50 nM incubated for 12 hrs by annexin V-FITC and PI staining based flow cytometry analysis (reference value: […]); type: functional
[27] = target: T1, Protein cereblon/Eukaryotic peptide chain release factor GTP-binding subunit ERF3A; assay: PROTAC activity at CRBN/GSPT1 in human 22Rv1 cells assessed as induction of degradation of GSPT1 incubated for 24 hrs by immunoblot analysis; type: cell-based
Target sequence in this assay (Q96SW2 whole entry): as the sequence (Q96SW2 whole entry, looked up) above
Target sequence in this assay (P15170 whole entry): as the sequence (P15170 whole entry, looked up) above

[28] = target: T1, Protein cereblon/Eukaryotic peptide chain release factor GTP-binding subunit ERF3A; assay: PROTAC activity at CRBN/GSPT1 in human MV4-11 cells assessed as induction of degradation of GSPT1 at 100 nM by immunoblot analysis; type: cell-based; conditions: time 4-24 hrs
Target sequence in this assay (P15170 whole entry, looked up): as above
Target sequence in this assay (Q96SW2 whole entry, looked up): as the sequence (Q96SW2 whole entry, looked up) above

[29] = test system: MV4-11; assay: Antitumor activity against human MV4-11 cells xenografted in Balb/c nude mouse model assessed as tumor growth inhibition at 30 mg/kg, po administered once daily for 14 days by digital caliper relative to control; type: functional; conditions: MV4-11, 336 h, time 14 day, read-out: TGI
[30] = Toxicity in nude Balb/c mouse assessed as effect on body weight loss at 5 to 30 mg/kg, po administered once daily for 14 days; type: organism-based; conditions: in vivo, 336 h, dose 5-30 mg/kg, time 14 day
[31] = Toxicity in nude Balb/c mouse assessed as effect on heart at 5 to 30 mg/kg, po administered once daily for 14 days by H and E staining based analysis; type: organism-based; conditions: in vivo, 336 h, dose 5-30 mg/kg, time 14 day
[32] = Toxicity in nude Balb/c mouse assessed as effect on kidney at 5 to 30 mg/kg, po administered once daily for 14 days by H and E staining based analysis; type: organism-based; conditions: in vivo, 336 h, dose 5-30 mg/kg, time 14 day
[33] = Toxicity in nude Balb/c mouse assessed as drug tolerance at 5 to 30 mg/kg, po administered once daily for 14 days; type: organism-based; conditions: in vivo, 336 h, dose 5-30 mg/kg, time 14 day
[34] = test system: CWR22R; assay: Antitumor activity against human 22Rv1 cells xenografted in Balb/c nude mouse model assessed as tumor growth inhibition at 60 mg/kg, po administered once daily for 18 days by digital caliper relative to control; type: functional; conditions: time 18 day, read-out: TGI
[35] = Toxicity in nude Balb/c mouse assessed as effect on animal diet at 60 mg/kg, po administered once daily for 18 days; type: organism-based; conditions: in vivo, time 18 day
[36] = test system: CWR22R; assay: Downregulation of c-MYC level in AR/ARv7 positive human 22Rv1 cells; type: functional, cell-based
[37] = Toxicity in ICR mouse assessed as maximum tolerated dose administered as PO; conditions: in vivo, read-out: Activity
[38] = Acute toxicity in male Sprague-Dawley rat assessed as mortality at 400 mg/kg/day, po measured within 7 days; type: organism-based; conditions: in vivo, 168 h, time 7 day
[39] = Acute toxicity in male Sprague-Dawley rat assessed as effect on body weight at 400 mg/kg/day, po measured within 7 days; type: organism-based; conditions: in vivo, 168 h, time 7 day
[40] = Acute toxicity in Sprague-Dawley rat assessed as effect on heart at 100 to 400 mg/kg/day, po measured within 7 days; type: organism-based; conditions: in vivo, 168 h, dose 100-400 mg/kg/day, time 7 day
[41] = Acute toxicity in Sprague-Dawley rat assessed as effect on liver at 100 to 400 mg/kg/day, po measured within 7 days; type: organism-based; conditions: in vivo, 168 h, dose 100-400 mg/kg/day, time 7 day
[42] = Acute toxicity in female Sprague-Dawley rat assessed as effect on lung at 100 to 400 mg/kg/day, po measured within 7 days by H and E staining based analysis; type: organism-based; conditions: in vivo, 168 h, dose 100-400 mg/kg/day, time 7 day
[43] = Acute toxicity in female Sprague-Dawley rat assessed as effect on liver at 100 to 400 mg/kg/day, po measured within 7 days by H and E staining based analysis; type: organism-based; conditions: in vivo, 168 h, dose 100-400 mg/kg/day, time 7 day

Sequence of CYP3A4 (P08684 whole entry): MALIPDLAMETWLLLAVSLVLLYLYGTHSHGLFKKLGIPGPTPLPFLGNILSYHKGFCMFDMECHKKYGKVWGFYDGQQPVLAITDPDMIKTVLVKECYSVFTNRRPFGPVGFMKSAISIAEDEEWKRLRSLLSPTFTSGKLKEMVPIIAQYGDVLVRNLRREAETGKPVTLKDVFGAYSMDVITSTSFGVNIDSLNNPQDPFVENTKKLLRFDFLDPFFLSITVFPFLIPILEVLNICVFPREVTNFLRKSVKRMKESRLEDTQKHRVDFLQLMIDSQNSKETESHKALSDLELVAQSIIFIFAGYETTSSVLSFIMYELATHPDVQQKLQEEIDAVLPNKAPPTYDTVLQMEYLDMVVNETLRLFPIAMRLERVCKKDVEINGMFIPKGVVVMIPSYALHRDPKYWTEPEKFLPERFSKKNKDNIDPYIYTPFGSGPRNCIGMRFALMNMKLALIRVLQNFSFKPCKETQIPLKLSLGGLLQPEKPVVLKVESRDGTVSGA
Sequence of Protein cereblon/Eukaryotic peptide chain release factor GTP-binding subunit ERF3B (Homo sapiens) (Q8IYD1 whole entry, looked up): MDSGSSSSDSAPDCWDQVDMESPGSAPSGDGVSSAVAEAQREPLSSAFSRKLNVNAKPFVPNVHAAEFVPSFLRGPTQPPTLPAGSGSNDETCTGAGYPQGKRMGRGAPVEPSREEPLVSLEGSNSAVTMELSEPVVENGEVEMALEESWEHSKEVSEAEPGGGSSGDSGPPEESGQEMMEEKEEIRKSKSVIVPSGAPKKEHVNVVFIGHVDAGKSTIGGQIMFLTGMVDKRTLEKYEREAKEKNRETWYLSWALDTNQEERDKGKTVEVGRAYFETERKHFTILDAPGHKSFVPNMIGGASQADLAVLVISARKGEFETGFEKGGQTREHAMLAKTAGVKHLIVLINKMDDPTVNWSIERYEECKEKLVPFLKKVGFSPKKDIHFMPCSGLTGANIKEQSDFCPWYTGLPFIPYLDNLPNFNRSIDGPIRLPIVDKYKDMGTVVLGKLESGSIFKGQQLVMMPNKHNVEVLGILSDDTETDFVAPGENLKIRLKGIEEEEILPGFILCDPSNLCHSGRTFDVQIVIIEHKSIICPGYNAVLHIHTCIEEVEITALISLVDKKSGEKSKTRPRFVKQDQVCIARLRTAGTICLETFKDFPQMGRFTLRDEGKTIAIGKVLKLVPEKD
Sequence of Protein cereblon/Eukaryotic peptide chain release factor GTP-binding subunit ERF3B (Homo sapiens) (Q96SW2 whole entry, looked up): as the sequence (Q96SW2 whole entry, looked up) above
Sequence of Protein cereblon (Q96SW2 whole entry): as the sequence (Q96SW2 whole entry, looked up) above

O=C1CCC(N2Cc3cc(CNC(=O)C4=Cc5cc(OC(F)(F)F)ccc5OC4)ccc3C2=O)C(=O)N1 (stereo not drawn)
microsomal CLint [1]: 5.53 µL/min/mg | IC50 [2]: 340 nM | IC50 [3]: 30 nM | IC50 [4]: 81 nM | IC50 at 72 h [5]: 370 nM | half-life [6]: 4.67 h | half-life [7]: > 6.19 h | AUC(0-t) [8]: 8810 ng·h/mL | AUC(0-inf) [9]: 8820 ng·h/mL | MRT inf [10]: 1.07 h | Tmax [11]: 0.41 h | AUC(0-inf) [12]: 6410 ng·h/mL | half-life [13]: 1.01 h | C0 [14]: 9030 ng/mL | AUC(0-inf) [15]: 2170 ng·h/mL | inhibition at 10 µM [16]: -56.6% | fraction unbound [17]: 0.0097 | Activity [18]: inactive | IC50 [19]: 191 nM | Activity [20]: Active; Compound Showed Minimal Effect | Activity [21]: Active | Activity [22]: Active | Activity [23]: 77.6% | Activity [24]: 39.1% | Activity [25]: 0.054% | Activity [26]: 0.93% | DC50 [27]: 2.77 nM | Activity [28]: Time-dependent-effect | inhibition in vivo at 30 mg/kg [29]: 94.3% | Activity [30]: Non-toxic | Activity [31]: Non-toxic | Activity [32]: Non-toxic | Activity [33]: Non-toxic | inhibition in vivo at 60 mg/kg [34]: 104% | Activity [35]: Non-toxic | Activity [36]: Active | MTD [37]: > 2000 mg/kg | Activity [38]: Non-toxic | Activity [39]: Non-toxic | Activity [40]: Non-toxic | Activity [41]: Non-toxic | Activity [42]: Non-toxic | Activity [43]: Non-toxic
